From ChEMBL document CHEMBL4020805, “Design, synthesis and SAR of new-di-substituted pyridopyrimidines as ATP-competitive dual PI3Kα/mTOR inhibitors” (Bioorg Med Chem Lett, 2017)
≈ marks a conversion by molar mass, not a printed value.

Key:
physchem = conditions: buffer, pH 7.4
in vitro = conditions: CD-1, mouse, liver microsomes

solubility at 1.5 h, 200 µM (physchem) [µM]	half-life at 1 µM (in vitro) [min]	Structure (SMILES)
11.4 (≈ 5.5 µg/mL)	> 60	CCC(=O)c1ccc(NC(=O)Nc2ccc(-c3nc(N4CCOCC4)c4cccnc4n3)cc2)cc1
4.2 (≈ 2.52 µg/mL)	59.6	O=C(Nc1ccc(-c2nc(N3CCOCC3)c3cccnc3n2)cc1)Nc1ccc(S(=O)(=O)Nc2ccc(F)cc2)cc1
< 2	> 60	O=C(Nc1ccc(C(=O)CCl)cc1)Nc1ccc(-c2nc(N3CCOCC3)c3ncccc3n2)cc1
< 2	> 60	O=C(Nc1ccc(-c2nc(N3CCOCC3)c3ncccc3n2)cc1)Nc1ccc(S(=O)(=O)Nc2ccc(F)cc2)cc1
< 2	59	CC(=O)c1ccc(NC(=O)Nc2ccc(-c3nc(N4CCOCC4)c4cccnc4n3)cc2)cc1
< 2	> 60	O=C(Nc1ccc(-c2nc(N3CCOCC3)c3ncccc3n2)cc1)Nc1ccc(S(=O)(=O)Nc2ccc(F)cc2F)cc1
< 2	> 60	CCOC(=O)c1ccc(NC(=O)Nc2ccc(-c3nc(N4CCOCC4)c4cccnc4n3)cc2)cc1
< 2	26.9	O=C(Nc1ccc(-c2nc(N3CCOCC3)c3cccnc3n2)cc1)Nc1ccc(S(=O)(=O)Nc2ccccc2)cc1
< 2	60	O=C(Nc1ccc(-c2nc(N3CCOCC3)c3cccnc3n2)cc1)Nc1ccc(S(=O)(=O)Nc2ccc(F)cc2F)cc1
< 2	16.6	O=C(Nc1ccc(-c2nc(N3CCOCC3)c3ncccc3n2)cc1)Nc1ccc(S(=O)(=O)Nc2ccccc2)cc1
3.4 (≈ 1.18 µg/mL)	7.1	Oc1cccc(-c2nc(N3CCOCC3)c3oc4ncccc4c3n2)c1 [PI-103]

Structure (SMILES)	solubility at 1.5 h, 200 µM (physchem) [µM]	half-life at 1 µM (in vitro) [min]
O=C(Nc1ccc(-c2nc(N3CCOCC3)c3cccnc3n2)cc1)Nc1cccc(CO)c1	21.8 (≈ 9.95 µg/mL)	30
O=C(Nc1ccccc1)Nc1ccc(-c2nc(N3CCOCC3)c3ncccc3n2)cc1	< 2	22.3
O=C(Nc1ccc(CCO)cc1)Nc1ccc(-c2nc(N3CCOCC3)c3ncccc3n2)cc1	< 2	> 60
